Experimental data: patent US20120302516A1, “NANOPARTICLES FOR DRUG DELIVERY” (UNIVERSITY OF LOUISVILLE RESEARCH FOUNDATION, INC., priority 2009, published 2012)
Where a name gives a salt, the structure may show the parent alone.

Key:
MCF-7 cells = test: AEM field-induced drug release in MCF-7 cells; dead (floating) cells counted by hemocytometer after 48 h; type: cell-based, Human; details: AEM field exposure No, no Fe3O4, 0.3 mg Dox
Procedure: Breast cancer MCF-7 cells were treated with the resultant Dox-NP formulations, and the treated cells then were either allowed to incubate or briefly exposed to an AEM field to induce drug release from the Dox-NP formulations.
AEM field study. Results of MCF-7 cells treated with nanoparticle-doxorubicin formulations followed by alternating electromagnetic (AEM) field exposure (15 mins, 350 A, 203 KHz) were obtained. Cells plated in 30 mm dishes were treated with NP formulations at a 0.5 mg Fe3O4 dose unless otherwise specified. Doxorubicin loadings per mg NP formulation were as follows: dNP.AO.Dox (0.64 mg Dox/mg), sNP.AO.Dox (0.43 mg Dox/mg), NP.Dox (0.05 mg Dox/mg). […]
Cell culture toxicity study. Human breast cancer cells (MCF-7) were purchased from American Type Culture Collection (VA, USA). Cells were plated in 30 mm dishes at ˜4˜10^5 cells/dish, and then grown up to 50-60% confluency in DMEM, 1% Pennstrep (Mediatech, Inc, VA) and 10% FBS (Valley Biomedical, Winchester, Va.).
Alternating electromagnetic field-induced drug release in MCF-7 cells. […]
Each measured amount of NP formulation was diluted to 2 mL by adding DMEM containing 10% FBS. […]

[1] = AEM field-mediated release of FITC conjugates from NP.(AO).FITC particles, supernatant fluorescence (HPLC); type: physicochemical; details: water, AEM field 201.4 A, 203 kHz, 30 minutes, after washes
Text: The fluorophore FITC-CHO was attached to iron oxide nanoparticles by reaction with NP-bound aminooxy compounds (previously described compounds 6.1, 7.1 and the diol analog of 7.1) to show the influence of resident hydroxyl functionality on the binding and release properties of derived iron oxide formulations. Scheme E below depicts the fluorophore aldehyde and the three oxime ether conjugates selected for this study. Using the stepwise synthesis method, FITC-CHO was mixed with NP-AO particles derived from the three aminooxy compounds to give the NP.(AO).FITC fluorophore formulations. […] The relative binding and release properties were measured by fluorescence spectroscopy on the supernatant solutions after magnetic separation of the nanoparticles and/or NP.(AO).FITC particles.
Integration of the supernatant fluorescence after NP washing and after AEM field irradiation is indicative of the binding to the nanoparticles and the release of FITC into the supernatant. […]
To a suspension of the NP.AO (3 mg) in methanol at room temperature was added a solution of FITC-CHO in methanol (0.01M, 50 μL/mg of NP.AO). […] The particles then were magnetically separated, the supernatant was removed and analyzed. The particles were washed twice with methanol (3× reaction volume) and the supernatants collected each time and analyzed. […]

Structure (SMILES)	MCF-7 cell death, extent (major/minor) (MCF-7 cells; continuation line of the cell death cell)	MCF-7 cell death (MCF-7 cells; relative to 'cells only' control, 48 h)	release into supernatant (fluorescence) after AEM field exposure [1]
COc1cccc2c1C(=O)c1c(O)c3c(c(O)c1C2=O)C[C@@](O)(C(=O)CO)C[C@@H]3O[C@H]1C[C@H](N)[C@H](O)[C@H](C)O1 [Dox, doxorubicin.HCl]	(major)	Yes	–
O=CCCCNC(=S)Nc1ccc(-c2c3ccc(=O)cc-3oc3cc(O)ccc23)c(C(=O)O)c1 [FITC-CHO]	–	–	no recovery of fluorescence after exposure to an AEM field
C[N+](CCO)(CCO)CCO/N=C/CCCNC(=S)Nc1ccc(-c2c3ccc(=O)cc-3oc3cc(O)ccc23)c(C(=O)O)c1 [FITC-III]	–	–	considerable FITC-conjugate is released into solution
